Molecules are shown by their SMILES. “Also recorded” adds a separate entry of the source.

For data set [1], the system named is painful diabetic peripheral neuropathy (DPN). In words: Randomized, double-blind, active-controlled, dose-ranging, 4-arm study of Compound 1 in painful diabetic peripheral neuropathy (Example 8). The text has this:
The study population included male and female subjects 18 through 80 years of age, inclusive, with presence of bilateral pain in lower extremities due to DPN for at least 1 year, and weekly average Numeric Pain Rating Scale (NPRS) pain score of ≥4.
Subjects who met eligibility criteria entered a 7-day Run-in Period to establish their baseline Numeric Pain Rating Scale (NPRS) pain score and Daily Sleep Interference Scale (DSIS) score. Subjects with a baseline average NPRS score of ≥4 points with limited variation (SD<25% of mean) were eligible for the 12-week Treatment Period followed by a Safety Follow-up Visit.
Randomization was stratified by sex (female and male) and body mass index (≥30 and <30 kg/m^2). To maintain the blind, all subjects received the same number of tablets once daily (qd) in the morning and the same number of capsules 3 times per day (tid) in a double-dummy design.
Acetaminophen was be permitted as a pain rescue medication as needed (prn) throughout the study. Subjects were permitted to take 500 mg of acetaminophen every 4 to 6 hours as needed, up to a maximum of 2500 mg in any 24-hour period.
The reference drug was administered orally in a 100 mg capsule tid.
From Day −7 through Week 12, subjects reported their average daily pain during the last 24 hours on the NPRS via e-diary; during the treatment period, the NPRS was completed in the morning before the first daily dose. Subjects also reported their current pain score before each administration of rescue medication. The NPRS scores from the daily e-diary, especially the change from baseline in the weekly average at Week 12, were used in the primary endpoint analysis, and the proportion of subjects with ≥30%, ≥50%, and ≥70% reduction in weekly average scores, especially at Week 12, as reported in the daily e-diary were used in the secondary endpoint analyses. For the primary endpoint, daily NPRS scores were averaged over a weekly period to reduce the impact of individual high or low pain scores.
Daily Sleep Interference Scale (DSIS): Pain frequently interferes with sleep, and sleep is important to quality of life. The FDA recommends evaluating the effect of analgesics on sleep. DSIS is commonly used in neuropathic pain studies and is assessed on an 11-point scale. The 11 point scale ranges from 0 (none) to 10 (severe). The DSIS was completed each morning before the first daily dose in an e-diary to describe how pain interfered with the subject's sleep. The change from baseline in the weekly average of DSIS, especially at Week 12, was used in the secondary endpoint analysis.
Patient Global Impression of Change (PGIC): The PGIC is commonly used in neuropathic pain studies, and the Initiative on Methods, Measurement, and Pain Assessment in Clinical Trials (IMMPACT) group recommends it as a core outcome measure for chronic pain studies and is thus evaluated in this study. There is some evidence that PGIC may be more sensitive in neuropathic pain studies than pain intensity assessments because it may assess additional quality of life measures. The assessment consists of a single item on a 7-point scale from 1 (very much improved) to 7 (very much worse). The PGIC was completed at selected study visits to quantify the change in subjects' overall status. The proportion of subjects categorized as improved on the PGIC assessment, especially at Week 12, was used in the secondary endpoint analysis.
Proportion of subjects using Rescue Medication and Total Medication Usage: Acetaminophen was permitted as a pain rescue medication as needed (prn) throughout the study.

Data set [2] has as its system acute pain after a bunionectomy. In words: Randomized, double-blind, placebo-controlled, 3-arm study of Compound 1 in acute pain after a bunionectomy (Example 5). To be noted: Compound 1 100 mg first dose, then 50 mg q12 h, placebo 8 hours.
Data set [3] has as its system pain following bunionectomy. In words: Randomized, double-blind, placebo-controlled, 5-arm study of Compound 1 in subjects with pain following bunionectomy (Example 4). Conditions: for Mean SPID48: oral.
Method: A randomized, double-blind, placebo-controlled, 5-arm, parallel-design study to evaluate the efficacy and safety of Compound 1 on acute surgical pain is conducted. Bunionectomy is a well-established, multi-dose, surgical, acute pain model. A randomized, double-blind study design was used to avoid observer bias and reduce symptoms or outcomes arising from the subjects' knowledge of treatment.
Male and female patients between the ages of 18 and 75 years (inclusive) with pain that is ≥4 on an 11-point Numeric Pain Rating Scale (NPRS) and is moderate or severe on the Verbal Categorical Rating Scale (VRS) after bunionectomy are included in the study.
Investigational Drug: Compound 1. The investigational drug was administered orally in 10 mg tablets. […] The investigational drug was administered every 12 hours (q12h). A low, mid, and high dosing regimen were tested. The first dose in the low dosing regime was 20 mg, and the subsequent doses were 10 mg g12h. The first dose in the mid dosing regime was 60 mg, and the subsequent doses were 30 mg g12h. The first dose in the high dosing regime was 100 mg, and the subsequent doses were 50 mg g12h.
The reference drug was administered orally in 5 mg/325 mg capsules, supplied as over-encapsulated 5 mg/325 mg tablets. The reference drug was administered in a dose of 5 mg/325 mg every 6 hours (q6h).
After a screening period, subjects receive a primary unilateral first metatarsal bunionectomy repair on Day minus one under regional anesthesia (Mayo and popliteal block). A continuous popliteal sciatic block infusion (0.2% ropivacaine) is started after surgery, and remains in place until approximately 3 AM on Day 1. After removal of the popliteal sciatic block, each subject is randomized when the subject requests the first dose of study drug for pain relief and reports pain ≥4 on the NPRS and moderate or severe pain on the VRS.
Randomization was stratified by site and baseline NPRS (<8 versus ≥8). To maintain the blind, all subjects receive the same number of capsules in a double-dummy design.
Compound 1 was administered every 12 hours (q12h). The final dose of Compound 1 is given 36 hours after the first dose.
Compound 1 placebo capsules are administered every 12 hours (q12h).
11-point (0 to 10) Numeric Pain Rating Scale: NPRS scores are frequently used in bunionectomy studies and are recognized by the FDA as a valid pain intensity measure. On the 11-point NPRS, a score of 0 denotes no pain, and a score of 10 denotes the worst pain intensity imaginable. Subjects reported their pain on the 11-point NPRS immediately before their first dose of the study drug (baseline NPRS score) and at intervals over 48 hour period (i.e. 0.5, 1, 1.5, 2, 3, 4, 5, 6, 8, 12, 16, 20, 24, 28, 32, 36, 40, 44, and 48 hours (±5 minutes)) after the first dose of the study drug. Pain intensity is also recorded on the NPRS immediately before each administration of rescue medication. Pain intensity scores that are collected within 4 hours after a dose of rescue medication are deemed missing, and the missing values are imputed as the intensity recorded immediately before the administration of rescue medication.
SPID-48 is the sum of the pain intensity difference (PID) over the 48 hour time period. A pain intensity score of 0 (no pain) to 10 (worse possible pain) is obtained before starting the study and throughout the 48 time period. The pain score at each assessment time is subtracted from the baseline pain score to provide the total sum score or SPID-48. A higher SPID-48 is better and indicates a reduction in pain intensity compared to the baseline score.
4-point Verbal Categorical Rating Scale: Subjects report their pain on the 4-point VRS (none, mild, moderate, or severe) immediately before their first dose of the study drug (baseline VRS).
Data set [4] deals with acute pain after an abdominoplasty. Put plainly: Randomized, double-blind, placebo-controlled, 3-arm study of Compound 1 in acute pain after an abdominoplasty (Example 6). To be noted: Compound 1 100 mg first dose, then 50 mg q12 h, placebo 8 hours.
Data set [5] relates to acute pain (surgical and non-surgical). Put plainly: Single-arm study of safety and effectiveness of Compound 1 for acute pain, surgical and non-surgical subjects (Example 7). In kind it is in vivo, human. To be noted: Compound 1 100 mg first dose, then 50 mg q12h.
Data set [6] relates to patients undergoing abdominoplasty. In words: Study of Compound 1 in patients undergoing abdominoplasty (NCT05034952). In kind it is in vivo, human.
Setting [7] is: Compound 1 combined dose groups, pregabalin 100 mg tid, 12 weeks.

Take `CC(C)C[C@H](CN)CC(=O)O` [Pregabalin, reference compound]: in data set [1] (setting [7]), the “Incidence of dizziness (adverse event)” value was found to be 9.3%, the “Incidence of peripheral edema (adverse event)” value was determined as 5.6% and the “Incidence of weight increased (adverse event)” value is 7.4%. Also, the “Change from baseline at week 12 in weekly average of daily pain on the NPRS (LS Mean)” value in data set [1] (Pregabalin 100 mg tid, painful DPN) is given as −2.09. In addition, the Related adverse events in data set [1] (patients treated with Compound 1 (combined), patients treated with pregabalin 100 mg tid, 12 weeks) is 27.8%.

Turning to `COc1c([C@H]2[C@H](C(=O)Nc3ccnc(C(N)=O)c3)O[C@@](C)(C(F)(F)F)[C@H]2C)ccc(F)c1F` [Compound 1, (2R,3S,4S,5R)-4-[[3-(3,4-difluoro-2-methoxy-phenyl)-4,5-dimethyl-5-(trifluoromethyl)tetrahydrofuran-2-carbonyl]amino]pyridine-2-carboxamide], in data set [2], the “Median time to 2-point reduction in NPRS from baseline” value was 4 h. Also, the “Change from baseline at week 12 in weekly average of daily pain on the NPRS (LS Mean)” value is listed as −2.18 in data set [1] (Compound 1 23 mg qd (low dose), painful DPN); −2.11 in data set [1] (Compound 1 46 mg qd (mid dose), painful DPN); −2.26 in data set [1] (Compound 1 69 mg qd (high dose), painful DPN). In addition, the “Reduction in pain from baseline (NPRS)” value in data set [1] (all three Compound 1 dose groups (23, 46, 69 mg qd), 12-week treatment, painful DPN) is “statistically significant and clinically meaningful reduction in pain from baseline; also recorded: significant mean reduction in pain from baseline that started from week 1”. The “Sleep (Daily Sleep Interference Scale, DSIS) at week 12” value in data set [1] (all three Compound 1 dose groups (23, 46, 69 mg qd), painful DPN) is “improvement in sleep”. In addition, in data set [3] (Compound 1 high dose, 48 hour assessment), the Onset of action result was “rapid and was sustained through the duration of assessment”. For the same molecule, the “Mean SPID48” value is 137.8 in data set [3] (High-dose Compound 1: 100 mg first dose/50 mg every 12 hours, n = 60, NPRS 0 to 48 hours); 112.9 in data set [3] (Low-dose Compound 1: 20 mg first dose/10 mg every 12 hours, n = 33, NPRS 0 to 48 hours); 86.9 in data set [3] (Mid-dose Compound 1: 60 mg first dose/30 mg every 12 hours, n = 62, NPRS 0 to 48 hours). For the same molecule, the “Mean SPID48 difference from placebo” value was 11.9 in data set [3] (Low-dose Compound 1: 20 mg first dose/10 mg every 12 hours, n = 33) and −14.1 in data set [3] (Mid-dose Compound 1: 60 mg first dose/30 mg every 12 hours, n = 62). Besides, the “Median time to ≥2-point reduction in NPRS from baseline” value in data set [4] was 2 h. Moreover, the “Patients reporting good, very good, or excellent on Patient Global Assessment (PGA) at end of treatment” value in data set [5] (all patients (256 subjects)) worked out at 83.2%; in data set [5] (non-surgical patients (34 subjects)), 91.2%; in data set [5] (surgical patients (222 subjects)), 82.0%. Besides, the “Serious adverse events related to study drug” value in data set [5] (up to 14 days) is on record as “no serious adverse events were related to Compound 1”. In data set [5] (up to 14 days, 256 subjects), the “Incidence of serious adverse events” value came to 0.8%. The “Treatment discontinuations due to adverse events” value in data set [5] (up to 14 days, 256 subjects) is recorded as 2.0%. The Safety and tolerability entry in data set [5] (up to 14 days, surgical and non-surgical pain, 256 subjects) was “generally safe and well tolerated”. Moreover, in data set [6], the “Improvement in SPID48” value is listed as “statistically significant improvement in SPID48”.

These data come from patent US20250186419A1, “DOSING REGIMENS FOR TREATING PAIN” (VERTEX PHARMACEUTICALS INCORPORATED, priority 2023, published 2025).
